Measured values published in patent US20230391792A1, “METHODS AND COMPOSITIONS FOR TARGETED PROTEIN DEGRADATION” (Ranok Therapeutics (Hangzhou) Co. Ltd., priority 2020, published 2023).
pIC50: −log10 of the molar value.

biological target: T1, HSP90α protein (N-terminal) (Homo sapiens, UniProt P07900); assay: HSP90α-binding fluorescent polarization (FP) assay, competition with BODIPY-labeled RNK04010; settings: probe RNK04010 (BODIPY-labeled) 5 nM, 25° C. 300 min
T1 construct: purchased BPS Bioscience #50298
Method: Binding of test compounds to HSP90α protein was measured by fluorescent polarization (FP) using the HSP90α (N-terminal) Assay Kit (BPS Bioscience, #50298), following the manufacturer's instructions, except as noted. Fluorescently labeled HSP90-binding compounds, either the provided FITC-geldanamycin (5 nM final concentration) or RNK04010, a triazolone-based HSP90-binding small molecule labeled with BODIPY through a piperizine-phenyl linker (5 nM final concentration) were employed. A 2.5-fold serial dilution of each test compound ranging from 20 μM to 5.2 nM was assayed for binding to HSP90α. After the final step of adding HSP90α protein to each assay well, plates were mixed by brief shaking, incubated at 25° C. for 120 min for FITC-geldanamycin or 300 min for RNK04010, and fluorescence was measured using a PerkinElmer EnVision Plate Reader.
HSP90α-binding fluorescent polarization (FP) assays measuring competition with the fluorescently labeled HSP90 binders, FITC-geldanamycin or RNK04010 (BODIPY-labeled), were applied to assess the binding capabilities of CHAMP molecules to HSP90.

| SMILES | pIC50 |
| --- | --- |
| CCCc1cc(-c2nnc(O)n2-c2ccc(CNC(=O)C3CCN(c4ccc(Nc5ncc6c(n5)N(C)c5ccccc5C(=O)N6C)c(OCC)c4)CC3)cc2)c(O)cc1O [Compound 121] | < 6.00 |
| Cc1sc2c(c1C)C(c1ccc(Cl)cc1)=N[C@@H](CC(=O)N1CCC(CN3CCN(Cc4ccc(-n5c(C(=O)NCCN6CCCCC6)nnc5-c5cc(C(C)C)c(O)cc5O)cc4)CC3)CC1)c1nnc(C)n1-2 [Compound 76] | > 7.00 |
| Cc1sc2c(c1C)C(c1ccc(Cl)cc1)=N[C@@H](CC(=O)N1CCC(CN3CCN(Cc4ccc(-n5c(C(=O)NC(C)C)nnc5-c5cc(C(C)C)c(O)cc5O)cc4)CC3)CC1)c1nnc(C)n1-2 [Compound 77] | 6.00 to 7.00 |
| CCc1cc(-c2nnc(C(=O)NC(CC)CC)n2-c2ccc(CN3CCN(CC4CCN(C(=O)C[C@@H]5N=C(c6ccc(Cl)cc6)c6c(sc(C)c6C)-n6c(C)nnc65)CC4)CC3)cc2)c(O)cc1O [Compound 103] | 6.00 to 7.00 |
| Cc1sc2c(c1C)C(c1ccc(Cl)cc1)=N[C@@H](CC(=O)N1CCC(CN3CCN(Cc4ccc(-n5c(C(N)=O)nnc5-c5cc(C(C)C)c(O)cc5O)cc4)CC3)CC1)c1nnc(C)n1-2 [Compound 78] | > 7.00 |
| CCc1cc(-c2nnc(C(=O)NCCN3CCCCC3)n2-c2ccc(CN3CCN(CC4CCN(C(=O)C[C@@H]5N=C(c6ccc(Cl)cc6)c6c(sc(C)c6C)-n6c(C)nnc65)CC4)CC3)cc2)c(O)cc1O [Compound 82] | > 7.00 |
| CCOc1cc(N2CCC(C(=O)NCCOCCNC(=O)O[C@H]3CC[C@H](Cc4cc(-n5nc(C)c6c5CC(C)(C)CC6=O)ccc4C(N)=O)CC3)CC2)ccc1N(CC)c1ncc2c(n1)N(C)c1ccccc1C(=O)N2C [Compound 151] | < 6.00 |
| COc1cccc(-c2cc(C(=O)Nc3ccc(-c4ccc(OC5CCN(C(=O)C[C@@H]6N=C(c7ccc(Cl)cc7)c7c(sc(C)c7C)-n7c(C)nnc76)CC5)cc4O)cc3)ccc2OC)c1 [Compound 131] | < 6.00 |
| COc1cccc(-c2cc(C(=O)Nc3ccc(-c4ccc(OC5CCN(C)CC5)cc4COCN(C)CC[C@@H]4N=C(c5ccc(Cl)cc5)c5c(sc(C)c5C)-n5c(C)nnc54)cc3)ccc2OC)c1 [Compound 133] | < 6.00 |
| CCN(Cc1ccc(OCCCNC(=O)C[C@@H]2N=C(c3ccc(Cl)cc3)c3c(sc(C)c3C)-n3c(C)nnc32)cc1)Cc1ccc(-n2c(C(=O)NCC(F)(F)F)nnc2-c2cc(C(C)C)c(O)cc2O)cc1 [Compound 72] | 6.00 to 7.00 |
| CCc1cc(-c2nnc(C(=O)NC3CC3)n2-c2ccc(CN3CCN(CC4CCN(C(=O)C[C@@H]5N=C(c6ccc(Cl)cc6)c6c(sc(C)c6C)-n6c(C)nnc65)CC4)CC3)cc2)c(O)cc1O [Compound 101] | > 7.00 |
| Cc1sc2c(c1C)C(c1ccc(Cl)cc1)=N[C@@H](CC(=O)N1CCC(CN3CCN(Cc4ccc(-n5c(C(=O)NC(C)C)nnc5-c5ccc(O)cc5O)cc4)CC3)CC1)c1nnc(C)n1-2 [Compound 91] | > 7.00 |
| CCOc1cc(N2CCC(C(=O)NCCCNC(=O)O[C@H]3CC[C@H](Nc4cc(-n5nc(C(F)(F)F)c6c5CC(C)(C)CC6=O)ccc4C(N)=O)CC3)CC2)ccc1Nc1ncc2c(n1)N(C)c1ccccc1C(=O)N2C [Compound 150] | < 6.00 |
| CCOc1cc(N2CCC(C(=O)NCc3ccc(-n4c(O)nnc4-c4ccc(O)cc4O)cc3)CC2)ccc1Nc1ncc2c(n1)N(C)c1ccccc1C(=O)N2C [Compound 119] | < 6.00 |
| CCOc1cc(N2CCC(C(=O)NCc3ccc(-n4c(O)nnc4-c4cc(C(C)C)c(O)cc4O)cc3C(F)(F)F)CC2)ccc1Nc1ncc2c(n1)N(C)c1ccccc1C(=O)N2C [Compound 122] | 6.00 to 7.00 |
| Cc1sc2c(c1C)C(c1ccc(Cl)cc1)=N[C@@H](CC(=O)N1CCN(Cc3ccc(-n4c(O)nnc4-c4cc(C(C)C)c(O)cc4O)cc3)[C@@H](C)C1)c1nnc(C)n1-2 [Compound 107] | 6.00 to 7.00 |
| Cc1cc(C(=O)N2Cc3ccc(CN4CCN(C(=O)C[C@@H]5N=C(c6ccc(Cl)cc6)c6c(sc(C)c6C)-n6c(C)nnc65)CC4)c(F)c3C2)c(O)cc1O [Compound 99] | < 6.00 |
| COc1cccc(-c2cc(C(=O)Nc3ccc(-c4ccc(OC5CCN(C)CC5)cc4OCCN(C)C(=O)CNC(=O)C[C@@H]4N=C(c5ccc(Cl)cc5)c5c(sc(C)c5C)-n5c(C)nnc54)cc3)ccc2OC)c1 [Compound 83] | < 6.00 |
| Cc1sc2c(c1C)C(c1ccc(Cl)cc1)=N[C@@H](CC(=O)NCCOCCN[C@@H](C)C(=O)N[C@H](C(=O)N1CCC[C@H]1C(=O)Nc1snnc1-c1ccccc1)C1CCCCC1)c1nnc(C)n1-2 [Compound 167] | < 6.00 |
| Cc1sc2c(c1C)C(c1ccc(Cl)cc1)=N[C@@H](CC(=O)NCCOCCOCCOCCOc1ccc(Nc3cc(-n4nc(C(F)(F)F)c5c4CC(C)(C)CC5=O)ccc3C(N)=O)cc1)c1nnc(C)n1-2 [Compound 162] | < 6.00 |

| SMILES | pIC50 |
| --- | --- |
| CCCc1cc(-c2nnc(C(=O)NCCN3CCCCC3)n2-c2ccc(CN3CCN(CC4CCN(C(=O)C[C@@H]5N=C(c6ccc(Cl)cc6)c6c(sc(C)c6C)-n6c(C)nnc65)CC4)CC3)cc2)c(O)cc1O [Compound 92] | > 7.00 |
| CCc1cc(-c2nnc(C(=O)NC(C)C)n2-c2ccc(CN3CCN(CC4CCN(C(=O)C[C@@H]5N=C(c6ccc(Cl)cc6)c6c(sc(C)c6C)-n6c(C)nnc65)CC4)CC3)cc2)c(O)cc1O [Compound 74] | > 7.00 |
| CCc1cc(-c2nnc(C(=O)NC(C)C(F)(F)F)n2-c2ccc(CN3CCN(CC4CCN(C(=O)C[C@@H]5N=C(c6ccc(Cl)cc6)c6c(sc(C)c6C)-n6c(C)nnc65)CC4)CC3)cc2)c(O)cc1O (stereo partly shown) [Compound 105] | 6.00 to 7.00 |
| COc1cccc(-c2cc(C(=O)Nc3ccc(-c4ccc(OC5CCN(C(=O)C[C@@H]6N=C(c7ccc(Cl)cc7)c7c(sc(C)c7C)-n7c(C)nnc76)CC5)cc4OCCN(C)C)cc3)ccc2OC)c1 [Compound 84] | < 6.00 |
| Cc1sc2c(c1C)C(c1ccc(Cl)cc1)=N[C@@H](CC(=O)NCCOCCNC(=O)O[C@H]1CC[C@H](Nc3cc(-n4nc(C(F)(F)F)c5c4CC(C)(C)CC5=O)ccc3C#N)CC1)c1nnc(C)n1-2 [Compound 154] | < 6.00 |
| Cc1sc2c(c1C)C(c1ccc(Cl)cc1)=N[C@@H](CC(=O)N(C)[C@@H](C)c1ccc(CN3CCC(Cc4ccc(-n5c(O)nnc5-c5cc(C(C)C)c(O)cc5O)cc4)CC3)cc1)c1nnc(C)n1-2 [Compound 63] | 6.00 to 7.00 |
| CCCc1cc(-c2nnc(O)n2-c2ccc(CN3CCN(C(=O)C4CCN(c5ccc(Nc6ncc7c(n6)N(C)c6ccccc6C(=O)N7C)c(OCC)c5)CC4)CC3)cc2)c(O)cc1O [Compound 128] | 6.00 to 7.00 |
| COc1cccc(-c2cc(C(=O)Nc3ccc(-c4ccc(OC5CCN(C(=O)CNC(=O)N[C@@H]6N=C(c7ccc(Cl)cc7)c7c(sc(C)c7C)-n7c(C)nnc76)CC5)cc4O)cc3)ccc2OC)c1 [Compound 132] | < 6.00 |
| Cc1sc2c(c1C)C(c1ccc(Cl)cc1)=N[C@@H](CC(=O)N1CCC(Cc3ccc(CN(C)Cc4ccc(-n5c(C(=O)NCC(F)(F)F)nnc5-c5cc(C(C)C)c(O)cc5O)cc4)cn3)CC1)c1nnc(C)n1-2 [Compound 109] | 6.00 to 7.00 |
| CCOc1cc(N2CCC(C(=O)N3CCN(C(=O)O[C@H]4CC[C@H](Nc5cc(-n6nc(C(F)(F)F)c7c6CC(C)(C)CC7=O)ccc5C(N)=O)CC4)CC3)CC2)ccc1Nc1ncc2c(n1)N(C)c1ccccc1C(=O)N2C [Compound 152] | < 6.00 |
| CCOc1cc(N2CCC(C(=O)NCc3ccc(CN4CCC(Cc5ccc(-n6c(C(=O)NC(C)C)nnc6-c6cc(C(C)C)c(O)cc6O)cc5)CC4)cc3)CC2)ccc1Nc1ncc2c(n1)N(C)c1ccccc1C(=O)N2C [Compound 130] | 6.00 to 7.00 |
| CCc1cc(-c2nnc(C(=O)NC(C)C)n2-c2ccc(CN3CCN(CC4CCN(C(=O)C[C@@H]5N=C(c6ccc(Cl)cc6)c6c(sc(C)c6C)-n6c(C)nnc65)CC4)CC3)cc2)c(O)cc1O [Compound 102] | > 7.00 |
| Cc1sc2c(c1C)C(c1ccc(Cl)cc1)=N[C@@H](CC(=O)N1CCN(Cc3ccc4c(c3F)CN(C(=O)c3cc(C(C)C)c(O)cc3O)C4)CC1)c1nnc(C)n1-2 [Compound 100] | 6.00 to 7.00 |
| CCc1cc(-c2nnc(C(=O)NC3(C)CC3)n2-c2ccc(CN3CCN(CC4CCN(C(=O)C[C@@H]5N=C(c6ccc(Cl)cc6)c6c(sc(C)c6C)-n6c(C)nnc65)CC4)CC3)cc2)c(O)cc1O [Compound 104] | > 7.00 |
| CCOc1cc(N2CCC(C(=O)NCc3ccc(-n4c(O)nnc4-c4cc(C)c(O)cc4O)cc3)CC2)ccc1Nc1ncc2c(n1)N(C)c1ccccc1C(=O)N2C [Compound 120] | 6.00 to 7.00 |
| CCOc1cc(N2CCC(C(=O)N3CCC(COc4ccc(Nc5cc(-n6nc(C(F)(F)F)c7c6CC(C)(C)CC7=O)ccc5C(N)=O)cc4)CC3)CC2)ccc1Nc1ncc2c(n1)N(C)c1ccccc1C(=O)N2C [Compound 159] | < 6.00 |
| Cc1sc2c(c1C)C(c1ccc(Cl)cc1)=N[C@@H](CC(=O)NCc1ccc(CN3CCC(Cc4ccc(-n5c(O)nnc5-c5cc(C(C)C)c(O)cc5O)cc4)CC3)cc1)c1nnc(C)n1-2 [Compound 60] | > 7.00 |
| CCOc1cc(N2CCC(C(=O)N3CCN(CCOc4ccc(Nc5cc(-n6nc(C(F)(F)F)c7c6CC(C)(C)CC7=O)ccc5C(N)=O)cc4)CC3)CC2)ccc1Nc1ncc2c(n1)N(C)c1ccccc1C(=O)N2C [Compound 149] | 6.00 to 7.00 |
| Cc1sc2c(c1C)C(c1ccc(Cl)cc1)=N[C@@H](CC(=O)N1CCN(Cc3ccc(-n4c(O)nnc4-c4cc(C(C)C)c(O)cc4O)cc3)[C@H](C)C1)c1nnc(C)n1-2 [Compound 106] | 6.00 to 7.00 |
| COc1cc(O)c(C(C)C)cc1-c1nnc(O)n1-c1ccc(CN2CCN(CC3CCN(C(=O)C[C@@H]4N=C(c5ccc(Cl)cc5)c5c(sc(C)c5C)-n5c(C)nnc54)CC3)CC2)cc1 [Compound 108] | < 6.00 |
